The source of these data is patent publication US20180037871A1, “CANCER INITIATING CELL AND USE THEREOF” (priority 2016, published 2018).

“Also recorded” adds a separate entry of the source. Read-outs that look alike come from different tables or passages of the source.

Test [1] relates to A549 cells. The experiment in a line: Cell viability assay (WST-1), A549 cells. In kind it is cell-based, human. The conditions noted are these: 48 h, mean ± SD. As to the method:
(§1) Cells were seeded at 3×10^3 cells per well in 96-well plates and incubated for 18 h. Cells were treated with cisplatin (Sigma-Aldrich) or paclitaxel (Sigma-Aldrich) at various concentrations. After 48 h, WST-1 assay (Roche) was performed to determine cell viability according to the manufacturer's instructions. Cell viability was expressed as a percentage of the non-treated group, and the IC50 values were determined.
A general note: Formazan colour is commonly taken as a measure of viable cells.

For test [2], the system named is CAR+/mPSCs^Oct-4_hi C7 clone. Put plainly: Cell viability assay (WST-1), C7 clone. The test is classed as cell-based, mouse. The conditions noted are these: 48 h, mean ± SD. As to the method:
as §1

Test [3] has as its system CAR+/mPSCs^Oct-4_hi E9 clone. The experiment in a line: Cell viability assay (WST-1), E9 clone. The test is classed as cell-based, mouse. The note with it: 48 h, mean ± SD. As to the method: as §1
The test system of test [4] is CAR+/mPSCs^Oct-4_hi C1 clone. The experiment in a line: Cell viability assay (WST-1), C1 clone. The test is classed as cell-based, mouse. The conditions noted are these: 48 h, mean ± SD. The method, then:
as §1

Test [5] relates to CAR+/mPSCs^Oct-4_hi C1, E9, and C7 clones. Put plainly: Cell viability assay (WST-1), C1, E9 and C7 clones together. The conditions noted are these: for IC50: range over C1, E9, and C7 clones, 48 h. In kind it is cell-based, mouse. The method, then: as §1
Test [6] deals with C1 clone tumor. Put plainly: Xenograft tumor assay of C1 clone. The test is classed as in vivo. The conditions noted are these: 50 mg/kg BW ip once every two days, 1×10^5 C1 cells sc, SCID mice, volume recorded day 10 to 25. An excerpt: All animal experiments were reviewed and approved by the Institutional Animal Care and Use Committee of National Taiwan University College of Medicine. For teratoma formation assay, 1×10^6 cells of CAR^+/mPSCs^Oct-4^_^hi C1, E9, and C7 clones were subcutaneously injected into 8-week-old male severe combined immunodeficiency (SCID) mice. For limiting dilution transplantation experiment, the C1 clone (10^5, 10^4, 10^3 and 10^2 cells) or CAR^+/mPSCs (10^6 cells) were subcutaneously injected into SCID mice. For C1-GFP clone and A549 cells derived tumor experiments. C1-GFP clone (1×10^5 cells) or A549 (1×10^6 cells) were subcutaneously injected into SCID mice. Tumor dimensions were measured using calipers once every 3 d, and volumes (cm^3) were calculated according to the standard formula: length×width^2/2. At the end of the experiment, the tumors were surgically excised and photographed. In metastasis assay, 3×10^5 cells of C1 clone, and CAR^+/mPSCs were injected into the lateral tail vein of SCID mice. Lung metastatic nodules were evaluated at week 5 by necropsy and histological examination. […]
1×10^5 cells of CAR^+/mPSCs^Oct-4^_^hi C1 clone were subcutaneously injected into 8-week-old male severe combined immunodeficiency (SCID) mice. […] Tumor dimensions were measured using calipers once every 2 or 3 d, and volumes (cm^3) were calculated according to the standard formula: length×width^2/2. […]

For test [7], the system named is blood vessel formation induced by C1 clone. The experiment in a line: Chick chorioallantoic membrane (CAM) assay of C1 clone. In kind it is in vivo, chicken. The note with it: 2 μM Tie2 kinase inhibitor, C1 clone 1×10^6 cells on CAM. The method, then: Fertilized chicken eggs were incubated at 37° C. in an atmosphere of 80% humidity. At day 8 of the development, 1×10^6 cells were loaded onto a membrane and implanted on the top of the growing CAM. At day 11, CAM was fixed with 4% paraformaldehyde, and photographed using a stereomicroscope and digital camera. Branching points were quantified using NIH Image J software with the angiogenesis plugin.
At day 11, CAM was fixed with 4% paraformaldehyde, and photographed using a stereomicroscope and a digital camera. Branching points were quantified using NIH Image J software with the angiogenesis plugin.

Where [8] appears, read: IC50 in C1, E9, C7 clones versus A549 cells.
Where [9] appears, read: Mus musculus, read-out: IC50 of paclitaxel.

Usually IC50 stands for the point on the concentration scale where inhibition reaches its midpoint. As for `N.N.[Cl][Pt][Cl]` [Cisplatin, cisplatin], the IC50 in test [1] (read-out: IC50 of cisplatin) was 13.5 ± 2.2 µM; in test [2] (read-out: IC50 of cisplatin), 32.7 ± 1.6 µM; in test [3] (read-out: IC50 of cisplatin) it was 26.4 ± 2.3 µM; in test [4] (read-out: IC50 of cisplatin), 34.7 ± 1.4 µM; in test [5] (read-out: IC50 of cisplatin), 26.4 to 34.7 µM. For the same molecule, the “resistance to cisplatin compared to the A549 cells” value in test [5] (setting [8]) is listed as 2-3 fold.

Turning to `CC(=O)O[C@H]1C(=O)[C@@]2(C)[C@H]([C@H](OC(=O)c3ccccc3)[C@]3(O)C[C@H](OC(=O)[C@H](O)[C@@H](NC(=O)c4ccccc4)c4ccccc4)C(C)=C1C3(C)C)[C@]1(OC(C)=O)CO[C@@H]1C[C@@H]2O` [Paclitaxel, paclitaxel], the IC50 is 0.0082 ± 0.0035 µM in test [1] (Homo sapiens, read-out: IC50 of paclitaxel); 0.045 ± 0.0025 µM in test [2] (setting [9]); 0.0432 ± 0.0036 µM in test [3] (setting [9]); 0.0472 ± 0.002 µM in test [4] (setting [9]); 0.0432 to 0.0472 µM in test [5] (setting [9]). Also, the “IC50 of paclitaxel higher than that of the A549 cells” value in test [5] (setting [8]) was “approximately 6 fold”.

As to `COc1ccc2cc(-c3nc(-c4ccc([S+](C)[O-])cc4)[nH]c3-c3ccncc3)ccc2c1` (stereo not drawn) [Tie2 kinase inhibitor], the “tumor volume / tumor growth” value in test [6] was “the tumor growth of C1 clone is inhibited”; in test [6] (listed as Tie2 inhibitor), “significantly reduced the tumor volume”. Besides, the “blood vessel formation (branch point number)” value in test [7] is “inhibited the blood vessel formation; also recorded: decreases the blood vessel formation induced by C1 clone”.
